Test results reported in patent US8263606B2 (Xenon Pharmaceuticals Inc., priority 2008, dated 2012).

Tests used:
[1] = tested on: inactivated state of the channel of interest (sodium channel); assay: Electrophysiological assay (whole cell voltage clamp, in vitro); format: cell-based; settings: affinity for the inactivated state of the channel of interest
Protocol: Cells expressing the channel of interest are cultured in DMEM growth media (Gibco) with 0.5 mg/mL G418, +/−1% PSG, and 10% heat-inactivated fetal bovine serum at 37° C. and 5% CO2. For electrophysiological recordings, cells are plated on 10 mm dishes.
Whole cell recordings are examined by established methods of whole cell voltage clamp (Bean et al., op. cit.) using an Axopatch 200B amplifier and Clampex software (Axon Instruments, Union City, Calif.). All experiments are performed at ambient temperature. Electrodes are fire-polished to resistances of 2-4 Mohms Voltage errors and capacitance artifacts are minimized by series resistance compensation and capacitance compensation, respectively. Data are acquired at 40 kHz and filtered at 5 kHz. The external (bath) solution consists of: NaCl (140 mM), KCl (5 mM), CaCl2 (2 mM), MgCl2 (1 mM), HEPES (10 mM) at pH 7.4. The internal (pipette) solution consists of (in mM): NaCl (5), CaCl2 (0.1), MgCl2 (2), CsCl (10), CsF (120), HEPES (10), EGTA (10), at pH 7.2.
To estimate the steady-state affinity of compounds for the resting and inactivated state of the channel (Kr and Ki, respectively), 12.5 ms test pulses to depolarizing voltages from −60 to +90 mV from a holding potential of −120 m V is used to construct current-voltage relationships (I-V curves). A voltage near the peak of the IV-curve (−30 to 0 m V) is used as the test pulse throughout the remainder of the experiment. Steady-state inactivation (availability) curves are then constructed by measuring the current activated during a 8.75 ms test pulse following 1 second conditioning pulses to potentials ranging from −120 to −10 m V.
The steady-state voltage-dependence of binding of a compound to a sodium channel is determined by measuring the blockage of the ionic current at two holding potentials. Binding to rested-state channels is determined by using a holding potential of −120 mV, so that maximal availability is achieved. Binding to inactivated-state channels is evaluated at a holding potential such that only 10% of the channels are available to open. The membrane potential is held at this voltage for at least 10 seconds so that drug binding can equilibrate.
The apparent dissociation constant at each voltage is calculated with the equation:
[formula] where Kd is the dissociation constant (either Kr or Ki), and [Drug] is the concentration of the test compound.
The Example numbers provided in Table 3 correspond to the Examples herein: […]

sodium channel = assay: Guanidine influx assay (14C-guanidine radiotracer flux, in vitro); format: cell-based, human or rat; settings: guanidine influx assay using a known cell line that expresses a sodium channel
How it was run: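 Aconitine holds channels open while 14C-guanidine enters human or rat sodium-channel-expressing cells in choline-substituted low-sodium saline, with test agent present at ambient temperature. Retained tracer is scintillation-counted and IC50 fitted by a four-parameter logistic model.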

CYP3A4 = CYP3A4 (Homo sapiens, UniProt P08684); assay: Cytochrome P450 (CYP450) Inhibition Assay, CYP3A4 (Vivid fluorescence, BOMCC substrate); settings: human, P450 Baculosomes (recombinant CYP3A4), probe BOMCC (Vivid substrate)
Sequence of CYP3A4 (P08684 whole entry): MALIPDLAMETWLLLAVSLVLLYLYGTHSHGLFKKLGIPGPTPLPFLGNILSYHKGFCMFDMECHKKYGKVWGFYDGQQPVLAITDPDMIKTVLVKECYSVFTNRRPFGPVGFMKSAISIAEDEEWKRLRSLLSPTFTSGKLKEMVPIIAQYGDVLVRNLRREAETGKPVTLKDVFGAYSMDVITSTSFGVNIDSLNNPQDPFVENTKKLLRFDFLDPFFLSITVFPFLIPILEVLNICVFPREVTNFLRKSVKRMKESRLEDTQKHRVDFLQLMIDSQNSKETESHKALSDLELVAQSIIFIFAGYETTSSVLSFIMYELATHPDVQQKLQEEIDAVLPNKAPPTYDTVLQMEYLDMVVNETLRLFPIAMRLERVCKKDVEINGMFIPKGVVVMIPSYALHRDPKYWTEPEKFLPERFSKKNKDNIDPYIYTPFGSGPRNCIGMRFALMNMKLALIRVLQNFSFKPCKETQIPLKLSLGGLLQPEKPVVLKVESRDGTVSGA

melting point [°C]	IC50 (sodium channel; activity level class) [nM]	inhibition at 10 µM (CYP3A4) [%]	IC50 (sodium channel) [nM]	Structure (SMILES)	Ki [1] [nM]
210 to 212	1 to 100	< 50	–	O=C1N(Cc2ncccn2)c2ccccc2[C@]12COc1cc3c(cc12)OCCO3 [Example 5.18, (8S)-1′-(pyrimidin-2-ylmethyl)-2,3-dihydrospiro[furo[2,3-g][1,4]benzodioxine-8,3′-indol]-2′(1′H)-one]	< 300
207 to 210	1 to 100	< 50	–	O=C1N(C[C@@H]2COCCO2)c2ccccc2[C@]12COc1cc3c(cc12)OCCO3 [Example 8.8, (8S)-1′-[(2R)-1,4-dioxan-2-ylmethyl]-2,3-dihydrospiro[furo[2,3-g][1,4]benzodioxine-8,3′-indol]-2′(1′H)-one]	< 300
207 to 209	1000 to 10000	< 50	–	O=C1N(C[C@H]2COCCO2)c2ccccc2[C@@]12COc1cc3c(cc12)OCCO3 [Example 8.6, (8R)-1′-[(2S)-1,4-dioxan-2-ylmethyl]-2,3-dihydrospiro[furo[2,3-g][1,4]benzodioxine-8,3′-indol]-2′(1′H)-one]	> 300
224 to 226	–	> 50	100 to 1000	CN(C)C(=O)c1ccc(CN2C(=O)C3(COc4cc5c(cc43)OCCO5)c3ccccc32)o1 (centres unmarked) [Example 11.33, N,N-dimethyl-5-[(2′-oxo-2,3-dihydrospiro[furo[2,3-g][1,4]benzodioxine-8,3′-indol]-1′(2′H)-yl)methyl]furan-2-carboxamide]	< 300
209 to 213	–	> 50	1 to 100	Cc1nc(-c2cccc(CN3C(=O)C4(COc5cc6c(cc54)CCO6)c4ccccc43)c2)no1 (centres unmarked) [Example 11.27, 1′-[3-(5-methyl-1,2,4-oxadiazol-3-yl)benzyl]-5,6-dihydrospiro[benzo[1,2-b:5,4-b′]difuran-3,3′-indol]-2′(1′H)-one]	< 300
185 to 186	–	< 50	1 to 100	Cc1nc(-c2ccc(CN3C(=O)C4(COc5cc6c(cc54)CCO6)c4ccccc43)cc2)no1 (centres unmarked) [Example 11.14, 1′-[4-(5-methyl-1,2,4-oxadiazol-3-yl)benzyl]-5,6-dihydrospiro[benzo[1,2-b:5,4-b′]difuran-3,3′-indol]-2′(1′H)-one]	< 300
102 to 104	1 to 100	< 50	–	COc1ncc(CN2C(=O)[C@@]3(COc4cc5c(cc43)OCCO5)c3ccccc32)cn1 [Example 5.17, (8S)-1′-[(2-methoxypyrimidin-5-yl)methyl]-2,3-dihydrospiro[furo[2,3-g][1,4]benzodioxine-8,3′-indol]-2′(1′H)-one]	< 300

Further lines, the molecule ahead of its results:

Structure (SMILES)	melting point [°C]	IC50 (sodium channel; activity level class) [nM]	inhibition at 10 µM (CYP3A4) [%]	IC50 (sodium channel) [nM]	Ki [1] [nM]
O=C1N(CC2CN(Cc3ccccc3)CCO2)c2ccccc2C12COc1cc3c(cc12)CCO3 (centres unmarked) [Example 4.29, 1′-[(4-benzylmorpholin-2-yl)methyl]-5,6-dihydrospiro[benzo[1,2-b:5,4-b′]difuran-3,3′-indol]-2′(1′H)-one]	65 to 70	1000 to 10000	> 50	–	> 300
O=C1N(Cc2ccc(C(F)(F)F)o2)c2ccccc2C12COc1cc3c(cc12)OC(F)(F)O3 (centres unmarked) [Example 2.34, 2,2-difluoro-1′-{[5-(trifluoromethyl)furan-2-yl]methyl}spiro[furo[2,3-f][1,3]benzodioxole-7,3′-indol]-2′(1′H)-one]	59 to 60	100 to 1000	> 50	–	> 300
Cc1noc2cc3c(cc12)C1(CO3)C(=O)N(Cc2ccc(C(F)(F)F)o2)c2ccccc21 (centres unmarked) [Example 9, 3-methyl-1′-{[5-(trifluoromethyl)furan-2-yl]methyl}spiro[furo[3,2-f][1,2]benzisoxazole-5,3′-indol]-2′(1′H)-one]	111 to 112	1 to 100	> 50	–	< 300
O=C1N(Cc2ccccn2)c2ccccc2[C@]12COc1cc3c(cc12)OCCO3 [Example 4.51, (S)-1′-(pyridin-2-ylmethyl)-2,3-dihydrospiro[furo[2,3-g][1,4]benzodioxine-8,3′-indol]-2′(1′H)-one]	144 to 146	1 to 100	< 50	–	< 300
O=C1N(Cc2ccc(C(F)(F)F)o2)c2ccccc2[C@@]12COc1cc3c(cc12)OCCO3 [Example 4.49, (R)-1′-{[5-(trifluoromethyl)furan-2-yl]methyl}-2,3-dihydrospiro[furo[2,3-g][1,4]benzodioxine-8,3′-indol]-2′(1′H)-one]	64 to 68	1 to 100	> 50	–	< 300
CC(C)CCN1C(=O)C2(COc3cc4c(cc32)OCCO4)c2ccccc21 (centres unmarked) [Example 4.36, 1′-(3-methylbutyl)-2,3-dihydrospiro[furo[2,3-g][1,4]benzodioxine-8,3′-indol]-2′(1′H)-one]	134 to 137	1 to 100	< 50	–	< 300
O=C1N(C[C@@H]2CCCO2)c2ccccc2C12COc1cc3c(cc12)OCCO3 (stereo partly drawn) [Example 4.43, 1-[(2S)-tetrahydrofuran-2-ylmethyl]-2,3-dihydrospiro[furo[2,3-g][1,4]benzodioxine-8,3′-indol]-2′(1′H)-one]	173 to 175	1 to 100	< 50	–	> 300
O=C1N(Cc2ccc3nsnc3c2)c2ccccc2C12COc1cc3c(cc12)CCO3 (centres unmarked) [Example 4.28, 1′-(2,1,3-benzothiadiazol-5-ylmethyl)-5,6-dihydrospiro[benzo[1,2-b:5,4-b′]difuran-3,3′-indol]-2′(1′H)-one]	162 to 164	1 to 100	> 50	–	< 300
O=C1N(CC2COCCO2)c2ccccc2C12COc1cc3c(cc12)OCCO3 (centres unmarked) [Example 4.45, 1′-(1,4-dioxan-2-ylmethyl)-2,3-dihydrospiro[furo[2,3-g][1,4]benzodioxine-8,3′-indol]-2′(1′H)-one]	160 to 165	1 to 100	< 50	–	> 300
O=C1Nc2ccccc2C12COc1ccc3nonc3c12 (centres unmarked) [Example 3.41, spiro[furo[3,2-e][2,1,3]benzoxadiazole-8,3′-indol]-2′(1′H)-one]	> 220	1000 to 10000	< 50	–	> 300
O=C1N(Cc2ccc(C(F)(F)F)o2)c2cc3c(cc2C12COc1cc4c(cc12)OCCO4)OCCO3 (centres unmarked) [Example 2.27, 6-((5-(trifluoromethyl)furan-2-yl)methyl)-2,3,3′,7′-tetrahydro-2′H-spiro[[1,4]dioxino[2,3-f]indole-8,8′-benzofuro[5,6-b][1,4]dioxin]-7(6H)-one]	176 to 178	100 to 1000	> 50	–	< 300
O=C1N(Cc2ccccn2)c2ccccc2C12COc1cc3c(cc12)OCCCO3 (centres unmarked) [Example 4.55, 1′-(pyridin-2-ylmethyl)-3,4-dihydro-2H-spiro[furo[2,3-h][1,5]benzodioxepine-9,3′-indol]-2′(1′H)-one]	122 to 123	100 to 1000	< 50	–	> 300
O=C1N(Cc2ccc(C(F)(F)F)o2)c2ccccc2C12COc1cc3c(cc12)OCCCO3 (centres unmarked) [Example 4.54, 1-{[5-(trifluoromethyl)furan-2-yl]methyl}-3,4-dihydro-2H-spiro[furo[2,3-h][1,5]benzodioxepine-9,3′-indol]-2′(1′H)-one]	162 to 164	100 to 1000	> 50	–	< 300
